Measured values published in US12371454B2, “Cyclic peptide compound having Kras inhibitory action” (priority 2019, dated 2025).
Starred links: 1 amine or outer side, 2 acyl side, 3 side chain; linkers in the order of their positions; H or OH if unused. Positions of bridges follow the written chain, without caps; N, C: chain ends. Non-standard residues stand in square brackets, D forms with d. Residues, ends and D or L forms follow the SMILES beside them. *: point of attachment. hPhe(3-Cl-4-CF3) = N[C@@H](CCc1ccc(C(F)(F)F)c(Cl)c1)C(=O)O; hPhe(3-F,4-CF3) = N[C@@H](CCc1ccc(C(F)(F)F)c(F)c1)C(=O)O; NMePhe(4-CF3) = CN[C@@H](Cc1ccc(C(F)(F)F)cc1)C(=O)O; NMePhe(4-Me) = CN[C@@H](Cc1ccc(C)cc1)C(=O)O; NMePhe(2-Me) = CN[C@@H](Cc1ccccc1C)C(=O)O; NMedβ3hAla = C[C@H](CC(=O)[*:2])N(C)[*:1]; NMeGly(cPent) = CN[C@H](C(=O)O)C1CCCC1; NMeCha = CN[C@@H](CC1CCCCC1)C(=O)O; NMeD = CN[C@@H](CC(=O)O)C(=O)O; NMeL = CN[C@@H](CC(C)C)C(=O)O; NMeV = CN[C@H](C(=O)O)C(C)C; d(β3hA) = C[C@@H](N)CC(=O)O; NMeA = CN[C@@H](C)C(=O)O; Piperidide = C1CCN(*)CC1; Ac5c = NC1(C(=O)O)CCCC1; Aze = O=C(O)[C@@H]1CCN1; Ac4c = NC1(C(=O)O)CCC1; Sar = CNCC(=O)O

Columns and labels:
[1] = tested on: Human pancreatic cancer cell line AsPC-1; test: Measurement of AsPC-1 cell growth inhibition (AsPC-1 CGI); type: cell-based; conditions: 96 h
Outline: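 AsPC-1 cells in 15% FBS RPMI-1640 were exposed to test compound for 96 hours at 37° C, with CellTiter-Glo as endpoint.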

[2] = target: T1, Kras and SOS1 (biotin-tagged human Kras loaded with GDP, His-tagged human SOS1) (Homo sapiens, UniProt P01116, G12D); test: Protein-protein interaction inhibition between Kras and SOS1 (KrasGl2D-SOS PPI) using AlphaScreen; type: binding; conditions: AlphaScreen; biotin-tagged human Kras loaded with GDP, His-tagged human SOS1; read-out: KRAS G12D-SOS PPI IC50
T1 construct: made in house; host or cells: E. coli (stated for Kras only)
Outline: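 Kras was produced in E. coli, purified, then loaded with GDP. It was paired via streptavidin acceptor beads with His-SOS1 held on nickel donor beads, and proximity signal at 520-620 nm was read after 680 nm illumination.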

T1 sequence (P01116 1-188 isoform P01116-2 G12D): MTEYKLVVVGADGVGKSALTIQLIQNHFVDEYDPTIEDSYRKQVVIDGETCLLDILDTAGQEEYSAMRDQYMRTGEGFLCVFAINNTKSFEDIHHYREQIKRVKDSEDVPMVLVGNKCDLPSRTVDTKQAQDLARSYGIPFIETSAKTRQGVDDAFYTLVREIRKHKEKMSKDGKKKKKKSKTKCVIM

| Compound | IC50 [1] | IC50 [2] |
| --- | --- | --- |
| CC[C@H](C)[C@@H]1NC(=O)[C@H](CC(C)C)N(C)C(=O)C[C@@H](C)NC(=O)[C@H](C2CCCC2)N(C)C(=O)C2(CCCC2)NC(=O)[C@@H]2CCCN2C(=O)[C@H](CCc2ccc(C(F)(F)F)c(Cl)c2)NC(=O)CN(C)C(=O)[C@H](Cc2ccc(C)cc2)N(C)C(=O)[C@@H]2CCN2C(=O)CN(C)C1=O [Compound 1500] (cyclo([Ac5c][NMeGly(cPent)][d(β3hA)][NMeL]I[Sar][Aze][NMePhe(4-Me)][Sar][hPhe(3-Cl-4-CF3)]P)) | 100 to 500 nM | 3.9 nM |
| CC[C@H](C)[C@@H]1NC(=O)[C@H](CC(C)C)N(C)C(=O)C[C@@H](C(=O)N2CCCCC2)N(C)C(=O)[C@H](CC(C)C)N(C)C(=O)C2(CCCC2)NC(=O)[C@@H]2CCCN2C(=O)[C@H](CCc2ccc(C(F)(F)F)c(F)c2)NC(=O)CN(C)C(=O)[C@H](CC2CCCCC2)N(C)C(=O)CN(C)C(=O)CN(C)C1=O [Compound 1501] ([NMeL]I[Sar][Sar][NMeCha][Sar][hPhe(3-F,4-CF3)]P[Ac5c][NMeL][NMeD]-Piperidide; lactam N-11) | 100 to 500 nM | 14 nM |
| CC[C@H](C)[C@@H]1NC(=O)[C@H](CC(C)C)N(C)C(=O)C[C@@H](C)NC(=O)[C@H](C2CCCC2)N(C)C(=O)C2(CCC2)NC(=O)[C@@H]2CCCN2C(=O)[C@H](CCc2ccc(C(F)(F)F)c(Cl)c2)NC(=O)CN(C)C(=O)[C@H](Cc2ccc(C(F)(F)F)cc2)N(C)C(=O)CN(C)C(=O)CN(C)C1=O [Compound 1508] (cyclo([Ac4c][NMeGly(cPent)][d(β3hA)][NMeL]I[Sar][Sar][NMePhe(4-CF3)][Sar][hPhe(3-Cl-4-CF3)]P)) | 100 to 500 nM | 1.3 nM |
| CC[C@H](C)[C@@H]1NC(=O)[C@H](C)N(C)C(=O)C[C@@H](C)NC(=O)[C@H](C2CCCC2)N(C)C(=O)C2(CCCC2)NC(=O)[C@@H]2CCCN2C(=O)[C@H](CCc2ccc(C(F)(F)F)c(Cl)c2)NC(=O)CN(C)C(=O)[C@H](Cc2ccc(C(F)(F)F)cc2)N(C)C(=O)CN(C)C(=O)CN(C)C1=O [Compound 1523] (cyclo([Ac5c][NMeGly(cPent)][d(β3hA)][NMeA]I[Sar][Sar][NMePhe(4-CF3)][Sar][hPhe(3-Cl-4-CF3)]P)) | 100 to 500 nM | 0.75 nM |
| CC[C@H](C)[C@@H]1NC(=O)[C@H](CC(C)C)N(C)C(=O)C[C@@H](C)NC(=O)[C@H](C2CCCC2)N(C)C(=O)C2(CCCC2)NC(=O)[C@@H]2CCCN2C(=O)[C@H](CCc2ccc(C(F)(F)F)c(Cl)c2)NC(=O)CN(C)C(=O)[C@H](Cc2ccc(C(F)(F)F)cc2)N(C)C(=O)CN(C)C(=O)CN(C)C1=O [Compound 1524] (cyclo([Ac5c][NMeGly(cPent)][d(β3hA)][NMeL]I[Sar][Sar][NMePhe(4-CF3)][Sar][hPhe(3-Cl-4-CF3)]P)) | 50 to 100 nM | 1.9 nM |
| CC[C@H](C)[C@@H]1NC(=O)[C@H](CC(C)C)N(C)C(=O)C[C@@H](C)NC(=O)[C@H](C2CCCC2)N(C)C(=O)C2(CCCC2)NC(=O)[C@@H]2CCCN2C(=O)[C@H](CCc2ccc(C(F)(F)F)c(Cl)c2)NC(=O)CN(C)C(=O)[C@H](Cc2ccc(C)cc2)N(C)C(=O)[C@@H]2CCN2C(=O)[C@H](C)N(C)C1=O [Compound 1537] (cyclo([Ac5c][NMeGly(cPent)][d(β3hA)][NMeL]I[NMeA][Aze][NMePhe(4-Me)][Sar][hPhe(3-Cl-4-CF3)]P)) | 50 to 100 nM | 3.9 nM |
| CC[C@H](C)[C@@H]1NC(=O)[C@H](CC(C)C)N(C)C(=O)C[C@@H](C)NC(=O)[C@H](C2CCCC2)N(C)C(=O)C2(CCC2)NC(=O)[C@@H]2CCCN2C(=O)[C@H](CCc2ccc(C(F)(F)F)c(Cl)c2)NC(=O)CN(C)C(=O)[C@H](CC2CCCCC2)N(C)C(=O)CN(C)C(=O)CN(C)C1=O [Compound 1544] (cyclo([Ac4c][NMeGly(cPent)][d(β3hA)][NMeL]I[Sar][Sar][NMeCha][Sar][hPhe(3-Cl-4-CF3)]P)) | 100 to 500 nM | 5.6 nM |
| CC[C@H](C)[C@@H]1NC(=O)[C@H](CC(C)C)N(C)C(=O)C[C@@H](C)N(C)C(=O)[C@H](C(C)C)N(C)C(=O)C2(CCCC2)NC(=O)[C@@H]2CCCN2C(=O)[C@H](CCc2ccc(C(F)(F)F)c(Cl)c2)NC(=O)CN(C)C(=O)[C@H](Cc2ccc(C)cc2)N(C)C(=O)CN(C)C(=O)CN(C)C1=O [Compound 1549] (cyclo([Ac5c][NMeV][NMedβ3hAla][NMeL]I[Sar][Sar][NMePhe(4-Me)][Sar][hPhe(3-Cl-4-CF3)]P)) | 50 to 100 nM | 3.6 nM |
| CC[C@H](C)[C@@H]1NC(=O)[C@H](CC(C)C)N(C)C(=O)C[C@@H](C)N(C)C(=O)[C@H](C(C)C)N(C)C(=O)C2(CCCC2)NC(=O)[C@@H]2CCCN2C(=O)[C@H](CCc2ccc(C(F)(F)F)c(Cl)c2)NC(=O)CN(C)C(=O)[C@H](Cc2ccccc2C)N(C)C(=O)CN(C)C(=O)CN(C)C1=O [Compound 1550] (cyclo([Ac5c][NMeV][NMedβ3hAla][NMeL]I[Sar][Sar][NMePhe(2-Me)][Sar][hPhe(3-Cl-4-CF3)]P)) | 50 to 100 nM | 19 nM |
